In patent US20260248763A1 (BIO GENUINE (SHANGHAI) BIOTECH CO., LTD, priority 2023, published 2026) one finds IC50 data, which are given here for 23 molecules.

Molecules are shown by their SMILES.

This test concerns the target T1, OTR (Homo sapiens, UniProt P30559).
T1 construct: expressed in transfected cells; host or cells: OTR/HEK293 stably transfected cell line
T1 sequence (P30559 1-389): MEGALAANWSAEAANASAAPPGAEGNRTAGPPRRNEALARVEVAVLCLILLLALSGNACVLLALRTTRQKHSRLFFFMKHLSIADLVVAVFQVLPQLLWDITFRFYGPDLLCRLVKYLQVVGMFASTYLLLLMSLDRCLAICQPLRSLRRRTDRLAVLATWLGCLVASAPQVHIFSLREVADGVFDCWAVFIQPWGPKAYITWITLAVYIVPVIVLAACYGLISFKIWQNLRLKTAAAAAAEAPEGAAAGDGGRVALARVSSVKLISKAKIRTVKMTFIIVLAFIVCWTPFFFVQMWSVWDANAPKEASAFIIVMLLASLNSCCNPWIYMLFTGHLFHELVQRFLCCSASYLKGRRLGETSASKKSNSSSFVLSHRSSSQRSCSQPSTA
Nature of the test: Ca2+ mobilization in cells stably expressing OTR (FLIPR, antagonist mode). The class given is cell-based. The note with it: OTR/HEK293 stably transfected cell line. The source says: Test Example 1. Determination of the Effect of the Compound of the Present Disclosure on Ca^2+ Mobilization in Cells Stably Expressing OTR
To measure the antagonistic effect of the compound of the present disclosure on OTR activity expressed in the OTR/HEK293 stably transfected cell line.
• DMEM medium (Invitrogen, 11965) • F12 medium (Invitrogen, 11765) • Fetal bovine serum (Excell, FSP500) • Geneticin (Invitrogen, 10131) • Penicillin/Streptomycin (Invitrogen, SV30010) • Fluo-4 Direct kit (Invitrogen, F10471) • 384-well cell plate (Greiner, 781090) • 384-well compound plate (Greiner, 781280)
• FLIPR instrument (Molecular Device) • EHCO instrument (Labcyte) • Cell counter (Beckman, Vi-cell XR)
The cultured cells were washed twice with pre-heated DPBS and digested with appropriate amount of trypsin at 37° C. for 1 minute, and then appropriate amount of culture medium was added to terminate digestion. The cells were centrifuged at 1000 rpm for 5 minutes. The supernatant was gently discarded without disturbing the cell pellet at the bottom. The cells were resuspended in culture medium and 1 mL was taken out for cell counting and viability assessment using Vi-CELL™. The cells were diluted to 1×10^6 cells/mL (20,000 cells/20 μL) with culture medium, seeded into a 384-well cell plate and incubated at 37° C. with 5% CO2 for 16-20 h.
Formulation of 250 mM Probenecid solution: according to the kit instructions, 1 mL of FLIPR buffer salt solution was added to 77 mg of probenecid, prepared fresh just before use. Formulation of Fluo-4 Direct™ (2×, 8 μM) loading buffer: according to the kit instructions, the required amount of Fluo-4 Direct™ was taken out and thawed in advance, 10 mL of FLIPR buffer salt solution and 0.2 mL of 250 mM Probenecid solution were added to each tube, and the mixture was vortexed in the dark for >5 minutes, prepared fresh just before use.
Preparation of agonist reference compound plate: the agonist was diluted 3-fold in 10 points using ECHO, and 750 nL was transferred to the corresponding compound plate using ECHO.
Preparation of reference and test compound plates: the test compound was diluted 3-fold in 10 points with ECHO, and 900 nL was transferred to the corresponding compound plate; the reference compound was diluted 3-fold in 10 points with assay buffer salt solution, and 30 μL was transferred to the compound plate.
30 μL of assay buffer salt solution was added to the corresponding compound plate, and the mixture was centrifuged at 1000 rpm for 1 minute.
The cell plate prepared the day before was taken out of the incubator, and 20 μL of 2×Fluo-4 Direct™ buffer was added to each well, with a total volume of 40 μL.
The plate was incubated in an incubator at 37° C. with 5% CO2 for 50 minutes, and then placed at room temperature for 10 minutes.
The compound plate, cell plate, and pipette tips were placed into the instrument.
For the agonist reference compound plate: the FLIPR instrument software was run, 10 μL of the pre-determined concentration of agonist reference compound was added to the cell plate following the preset protocol, and the fluorescence signal was read. After reading, the data were exported to calculate the EC80 for each cell line, and the agonist at 6×EC80 concentration was prepared.
For the compound plate: the FLIPR instrument software was run, 10 μL of the pre-determined concentration of test compound and the reference compound were added to the cell plate following the preset protocol, and the fluorescence signal was read. 10 μL of the reference compound agonist at 6×EC80 concentration was added to the cell plate, and the fluorescence signal was read. For antagonist detection of the compound, the data were exported using the “Max-Min” and “Read 1 to Maximum allowed” methods in the software, and the data were fitted using Prism.
Take `CO/N=C1/C[C@@H](CNC(=O)CO)N(C(=O)c2ccc(-c3ccccc3C)cc2)C1` [Example C0008, (S, Z)-2-Hydroxy-N-((4-(methoxyimino)-1-(2′-methyl-[1,1′-biphenyl]-4-carbonyl)pyrrolidin-2-yl)methyl)acetamide]: the IC50 came out at 1010 nM.

On to `CO/N=C1/C[C@@H](CO)N(C(=O)c2cnc(-c3ccccc3C)cn2)C1` [Example C0013, (S, Z)-(2-(Hydroxymethyl)-4-(methoxyimino)pyrrolidin-1-yl)(5-(o-tolyl)pyrazin-2-yl)methanone], for which the IC50 was determined as 853 nM. Under `CO/N=C1/C[C@@H](CO)N(C(=O)c2ccc(-c3ccccc3C)cn2)C1` [Example C0015, (S, Z)-(2-(Hydroxymethyl)-4-(methoxyimino)pyrrolidin-1-yl)(5-(o-tolyl)pyridin-2-yl)methanone] stands 888 nM; under `CO/N=C1/C[C@@H](COCCO)N(C(=O)c2ccc(-c3ccccc3C)cc2)C1` [Example C0017, (S, Z)-(2-((2-Hydroxyethoxy)methyl)-4-(methoxyimino)pyrrolidin-1-yl)(2′-methyl-[1,1′-biphenyl]-4-yl)methanone], 140 nM. As for `CO/N=C1\C[C@@H](COCCO)N(C(=O)c2ccc(-c3ccccc3C)cc2)C1` [Example C0018, (S, E)-(2-((2-Hydroxyethoxy)methyl)-4-(methoxyimino)pyrrolidin-1-yl)(2′-methyl-[1,1′-biphenyl]-4-yl)methanone], the figure is 545 nM; as for `CO/N=C1/C[C@@H](CO)N(C(=O)c2cnc(-c3ccccc3C)s2)C1` [Example C0030, (S, Z)-(2-(Hydroxymethyl)-4-(methoxyimino)pyrrolidin-1-yl)(2-(o-tolyl)thiazol-5-yl)methanone], 1820 nM; as for `CO/N=C1\CN(C(=O)c2ccc(-c3ccccc3C)cc2)[C@@]2(CCNC2=O)C1` [Example C0039, (S, Z)-3-(Methoxyimino)-1-(2′-methyl-[1,1′-biphenyl]-4-carbonyl)-1,7-diazaspiro[4.4]nonan-6-one], 295 nM. Under `CO/N=C1/C[C@@H](CO)N(C(=O)c2ccc(-c3cccc4c3CCC4)cc2)C1` [Example C0051, (S, Z)-(4-(2,3-Dihydro-1H-inden-4-yl)phenyl)(2-(hydroxymethyl)-4-(methoxyimino)pyrrolidin-1-yl)methanone] stands 115 nM; under `CO/N=C1\C[C@@H](CO)N(C(=O)c2ccc(-c3cccc(C#N)c3C)cc2)C1` [Example C0057, (S, E)-4′-(2-(Hydroxymethyl)-4-(methoxyimino)pyrrolidine-1-carbonyl)-2-methyl-[1,1′-biphenyl]-3-carbonitrile], 82.9 nM.

Take `CO/N=C1/C[C@@H](CO)N(C(=O)c2cc(C(F)(F)F)c(-c3cccc(C)c3C)cn2)C1` [Example C0071, (S, Z)-(5-(2,3-Dimethylphenyl)-4-(trifluoromethyl)pyridin-2-yl)(2-(hydroxymethyl)-4-(methoxyimino)pyrrolidin-1-yl)methanone]: the half-inhibitory concentration (IC50) came out at 237 nM. As for `CO/N=C1/C[C@@H](CO)N(C(=O)c2cc(=O)n(-c3cccc(C)c3C)cn2)C1` [Example C0077, (S, Z)-3-(2,3-Dimethylphenyl)-6-(2-(hydroxymethyl)-4-(methoxyimino)pyrrolidine-1-carbonyl)pyrimidin-4(3H)-one], the figure is 673 nM; as for `CO/N=C1/C[C@@H](CO)N(C(=O)c2ncc(-c3cccc(C)c3C)cc2OC)C1` [Example C0081, (S, Z)-(5-(2,3-Dimethylphenyl)-3-methoxypyridin-2-yl)(2-(hydroxymethyl)-4-(methoxyimino)pyrrolidin-1-yl)methanone], 129 nM; as for `CO/N=C1/C[C@@H](CO)N(C(=O)c2ccc(-c3cccc(C)c3C)c(C(F)(F)F)n2)C1` [Example C0085, (S, Z)-(5-(2,3-Dimethylphenyl)-6-(trifluoromethyl)pyridin-2-yl)(2-(hydroxymethyl)-4-(methoxyimino)pyrrolidin-1-yl)methanone], 161 nM. As for `CO/N=C1/C[C@@H](CO)N(C(=O)c2ncc(-c3cccc(C)c3C)c(C(F)(F)F)n2)C1` [Example C0087, (S, Z)-(5-(2,3-Dimethylphenyl)-4-(trifluoromethyl)pyrimidin-2-yl)(2-(hydroxymethyl)-4-(methoxyimino)pyrrolidin-1-yl)methanone], the figure is 176 nM; as for `CO/N=C1/C[C@@H](CO)N(C(=O)c2ccc(-c3ccnc(C#N)c3C)cc2)C1` [Example C0091, (S, Z)-4-(4-(2-(Hydroxymethyl)-4-(methoxyimino)pyrrolidine-1-carbonyl)phenyl)-3-methylpicolinonitrile], 279 nM; as for `CO/N=C1/C[C@@H](CO)N(C(=O)c2ccc(-c3cc(C#N)ccc3C)cc2)C1` [Example C0095, (S, Z)—4′-(2-(Hydroxymethyl)-4-(methoxyimino)pyrrolidine-1-carbonyl)-6-methyl-[1,1′-biphenyl]-3-carbonitrile], 1260 nM. Under `CO/N=C1/C[C@@H](CO)N(C(=O)c2ncc(-c3cccc(C)c3C)s2)C1` [Example C0097, (S, Z)-(5-(2,3-Dimethylphenyl)thiazol-2-yl)(2-(hydroxymethyl)-4-(methoxyimino)pyrrolidin-1-yl)methanone] stands 815 nM. Molecule `CO/N=C1/C[C@@H](CO)N(C(=O)c2ccc(-c3cccc(C)c3C)c(=O)n2C)C1` [Example C0103, (S,Z)-3-(2,3-Dimethylphenyl)-6-(2-(hydroxymethyl)-4-(methoxyimino)pyrrolidine-1-carbonyl)-1-methylpyridin-2(1H)-one] came in with an IC50 of 1480 nM.

The molecule `CO/N=C1/C[C@@H](CO)N(C(=O)c2ccc(-c3cccc(C#N)c3C(F)(F)F)cc2)C1` [Example C0127, (S, Z)-4′-(2-(Hydroxymethyl)-4-(methoxyimino)pyrrolidine-1-carbonyl)-2-(trifluoromethyl)-[1,1′-biphenyl]-3-carbonitrile] gave an IC50 of 102 nM. The molecule `CO/N=C1/C[C@@H](CO)N(C(=O)c2ccc(-c3cccc(C(F)F)c3C)c3c2OCCO3)C1` [Example C0137, (S,Z)-(8-(3-(Difluoromethyl)-2-methylphenyl)-2,3-dihydrobenzo[b][1,4]dioxin-5-yl)(2-(hydroxymethyl)-4-(methoxyimino)pyrrolidin-1-yl)methanone] yielded an IC50 of 7.43 nM.

Take `CO/N=C1/C[C@@H](CO)N(C(=O)c2ccc(-c3c(F)ccc(C#N)c3C)c3c2OCO3)C1` [Example C0139, 4-Fluoro-3-(7-((S,Z)-2-(hydroxymethyl)-4-(methoxyimino)pyrrolidine-1-carbonyl)benzo[d][1,3]dioxol-4-yl)-2-methylbenzonitrile]: inhibition was half-maximal at 40.5 nM (IC50). Under `CO/N=C1/C[C@@H](CO)N(C(=O)c2ccc(-c3cc(F)cc(C#N)c3C)c3c2OCO3)C1` [Example C0144, (S,Z)-5-Fluoro-3-(7-(2-(hydroxymethyl)-4-(methoxyimino)pyrrolidine-1-carbonyl)benzo[d][1,3]dioxol-4-yl)-2-methylbenzonitrile] stands 59.9 nM. Under `CO/N=C1/C[C@@H](CO)N(C(=O)c2ccc3c(c2)OCCc2c(C#N)cccc2-3)C1` [Example C0146, (S, Z)-3-(2-(Hydroxymethyl)-4-(methoxyimino)pyrrolidine-1-carbonyl)-6,7-dihydrodibenzo[b,d]oxepine-8-carbonitrile] stands 228 nM.
